Converted amounts (≈) assume the structure as drawn.
Experiments:
[1] = test system: P. aeruginosa; test: Biofilm growth assay (spreading biofilm on semi-solid agar); type: cell-based; parameters: P. aeruginosa (n=10): unit not given here
[2] = test system: E. coli; test: as above; type: cell-based; parameters: E. coli (n=10): unit: ug/mL
Method in brief: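 Spreading (swarming) biofilm on semi-solid agar: E. coli on LB with 0.6% agar and 0.5% glucose; P. aeruginosa on M8 agar with 0.2% glucose, 100 µM CaCl2, 1 mM MgSO4, 0.5% Casamino acids. Compound in medium; 5 µL overnight culture spotted centrally, 37°C overnight. Value: concentration (µg/ml) giving ≥85% reduction in spread area versus negative control.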

[3] = test system: Burkholderia cepacia; test: Biofilm growth assay, multiple isolates; type: cell-based; conditions: Table 6; inhibitory concentration in the biofilm growth assay; n = number of isolates tested
Method: (§1) The biofilm growth assay was carried out to measure swarming or biofilm spreading on semi-solid agar media in round plates (for example, 100 × 15 mm), also referred to as Petri dishes. For E. coli, the plates contained LB medium with 0.6% agar and 0.5% glucose. P. aeruginosa plates were made with M8 agar supplemented with 0.2% glucose, 100 µM CaCl2, 1 mM MgSO4, and 0.5% Casamino acids. The agar plates of this assay consisted of 0.4% to 0.7% agar (Bacto or Noble agar), although other media may also be used as described in the literature and known to those skilled in the art. Test compounds at the desired concentration were added to the cooled, autoclaved media. Portions of the media were then poured into the plates (20 mL/plate), and the plates allowed to dry at room temperature for approximately 3 to 4 hours. Alternatively, however, plates may be dried in a laminar flow hood for approximately fifteen to twenty minutes. Overnight cultures were grown in a 37°C shaker in LB (E. coli) or TSB (P. aeruginosa). Plates were inoculated by placing 5 µL of the appropriate overnight culture in the centers of the plates. The plates then were incubated overnight at 37°C. The area of the zone of spreading bacteria was then measured and replicates are averaged. Percent inhibition was calculated as 100 × (area without compound - area with compound)/(area without compound). An active compound was considered that which reduces the area of the spreading biofilm compared to negative controls by greater than or equal to 85%. The values shown in Table 1 are the concentrations of compounds (µg/ml) tested in the biofilm growth assay that reduce the area of the spreading biofilm compared to negative controls by greater than or equal to 85% unless noted differently in Table 1. A > ("greater than" symbol) as used in Table 1 is well understood to those skilled in the art as an indication that the listed concentration was not effective at this concentration.
(§2) Table 6, below, lists the inhibitory concentrations of select compounds and antibiotics in the biofilm growth assay against various gram-negative bacterial biofilms. "N" means the number of isolates of bacteria tested. The biofilm growth assay procedure detailed in Example I, above, was followed. Burkholderia cepacia used media consisting of M9 salts, 100 µM CaCl2, 1 mM MgS04, and 0.7% citrate in 0.4% Noble agar. Salmonella spp. used media consisting of Nutrient Broth with 0.5% glucose in 0.5% Noble agar.

[4] = test system: Salmonella spp.; test: Biofilm growth assay, multiple isolates; type: cell-based; conditions: Table 6; inhibitory concentration in the biofilm growth assay; n = number of isolates tested
Method: as §1, §2

[5] = Bioavailability in mice (serum level after oral or IP administration); type: in vivo; conditions: orally or via IP injection at approximately 20 mg/kg to 50 mg/kg; 30 minutes or 1 hour after administration
Method: The bioavailabilities of certain compounds were examined in mice. Administration of the compounds was performed orally and by intraperitoneal (IP) injection using a vehicle as known to those skilled in the art. Many vehicles can be used to examine bioavailability. Prior to administration, each vehicle was optimized based on compound solubility according to the formulation research conducted by Uckun et al. (Arznelmittel-Forschung (Drug Research) 2007; 57(4):218-226). […] The concentration of PEG400 is modulated depending upon solubility of the compounds and the amount of aqueous phase added (0.02 M citrate and 0.9% NaCl).

[6] = test system: Pseudomonas syringae; test: Biofilm growth assay, plant pathogens; type: cell-based; conditions: 0.5% Noble agar, 30°C, approximately 24 to 48 hours
[7] = test system: Xanthomonas campestris; test: Biofilm growth assay, plant pathogens; type: cell-based; conditions: 0.5% Noble agar, 30°C, approximately 24 to 48 hours
[8] = test system: Pectobacterium atrosepticum; test: Biofilm growth assay, plant pathogens; type: cell-based; conditions: 0.5% Noble agar, 30°C, approximately 24 to 48 hours
[9] = test system: P. aeruginosa biofilm; test: Biofilm growth assay with antibiotic disks (synergy); type: cell-based; conditions: 0.125 µg/ml in the agar with colistin 10 µg disks
Method: INHIBITION OF THE GROWTH OF PREFORMED BIOFILMS. The Biofilm Growth Assay as described in Example VII was performed in round plates with the compounds of the invention in agar on half of the plate and antibiotic disks placed onto the agar containing the compounds of the invention.
The Biofilm Growth Assay was performed as described in Example VIII. 2 to 4 antibiotic disks were placed onto the agar containing a compound of the invention in a line parallel to the line that separates the two agars in one round plate. Appropriate negative and positive control plates were performed as known to those skilled in the art.

[10] = Table 2, concentration that reduces the area of the spreading biofilm by >= 85%
[11] = Table 6, inhibitory concentration in the biofilm growth assay, n = number of isolates tested

Q: What does the source list for CC1(C)CC[C@]2(C(=O)O)CC[C@]3(C)C(=CCC4[C@@]5(C)Cc6c(n[nH]c6N)C(C)(C)C5CC[C@]43C)C2C1 (stereo in doubt) [Compound 1, (4aS,6aS,6bR,13aR)-12-Amino-2,2,6a,6b,9,9,13a-heptamethyl-2,3,4,4a,5,6,6a,6b,7,8,8a,9,11,13,13a,13b,14,15b-octadecahydro-1H-chryseno[1,2-f]indazole-4a-carboxylic acid]?
A: growth of the spreading P. aeruginosa biofilm (Figure 1) ([1]; 0.5 µg/ml in the agar, overnight incubation at 37°C): prevented the growth of the spreading P. aeruginosa biofilm; optimal working concentration ([1]; Figure 2 legend): 0.5 µg/mL; IC85 ([1]; Pseudomonas aeruginosa, Table 1, concentration that reduces the area of the spreading biofilm vs negative controls by >= 85%, > means not effective at this concentration, read-out: P. aeruginosa): 0.5 µg/mL (≈ 1.01 µM); P. aeruginosa [1, 10]: 0.5 µg/mL; P. aeruginosa (n=10) [1, 11]: 1; IC85 ([2]; Escherichia coli, Table 1, concentration that reduces the area of the spreading biofilm vs negative controls by >= 85%, > means not effective at this concentration, read-out: E. coli): 1 µg/mL (≈ 2.03 µM); E. coli [2, 10]: 1 µg/mL; E. coli (n=10) [2, 11]: 1; inhibitory concentration [3]: 0.25; inhibitory concentration in biofilm growth assay [4]: 1; concentration in the serum of mice [5]: > 5000 ng/mL; concentration found to inhibit the spreading biofilms [6]: 0.03 µg/mL; concentration found to inhibit the spreading biofilms [7]: 0.5 µg/mL; concentration found to inhibit the spreading biofilms [8]: 0.06 µg/mL; combination with colistin at preventing the growth of P. aeruginosa biofilms (Figure 2) [9]: synergistic
